21 compounds from US7005430B2, “Fused purine derivatives” (Kyowa Hakko Kogyo Co., Ltd., priority 1999, dated 2006) can be followed below.

Each structure is given as a SMILES string. Structures can show the parent of a compound that is named as a salt.

In one data set the test system is MIN6 cell. Briefly: Insulin secretion promoting activity for cultured β cells (MIN6). It counts as cell-based. The note with it: for secretion promoting action at a low glucose concentration (in words): MIN6 cells, glucose at a low concentration (5 mmol/L). How it is done: Culture of the MIN6 cells above and insulin secretion test utilizing the MIN6 cells were performed according to the methods described in Diabetologia, vol. 36, pp. 1139–1145, 1993. The effect of a compound on the insulin secretion in the presence of 14.5 mmol/L glucose was determined by measuring insulin amounts in cell culture supernatants collected as follows. MIN6 cells cultured on a 24-well plate were washed twice by using 1 mL of Buffer A (119 mmol/L sodium chloride, 4.74 mmol/L potassium chloride, 2.54 mmol/L calcium chloride, 1.19 mmol/L magnesium sulfate, 1.19 mmol/L potassium dihydrogenphosphate, 10 mmol/L 2-[4-(2-hydroxyethyl)-1-piperazinyl]ethanesulfonic acid, 0.1% bovine serum albumin, pH 7.3) containing 2 mmol/L glucose, and then were incubated in 1 mL of Buffer A containing 2 mmol/L glucose at 37° C. for 45 minutes. After the incubation, the culture supernatant was changed to Buffer A (0.9 mL) containing a test compound at various concentrations and 2 mmol/L glucose, and the cells were further incubated at 37° C. for 15 minutes. The MIN6 cells were stimulated with glucose by the addition of Buffer A (0.1 mL) containing 127 mmol/L glucose to the culture (final glucose concentration: 14.5 mmol/L). After the stimulation, the cells were further incubated at 37° C. for 45 minutes, and then the culture supernatant was collected.
Separately, the effect of a compound on the insulin secretion in the presence of 5 mmol/L glucose was determined by measuring insulin amounts in cell culture supernatants collected as follows. MIN6 cells cultured on a 24-well plate were washed twice by using 1 mL of Buffer A containing 5 mmol/L glucose, and then the culture supernatant was changed to Buffer A (0.9 mL) containing a test compound at various concentrations and 5 mmol/L glucose. Then, the cells were incubated at 37° C. for 45 minutes (final glucose concentration: 5 mmol/L), and the culture supernatant was collected.
After the culture supernatant was diluted with a phosphate buffer containing 1% bovine serum albumin, 0.1% Tween 20, 0.12% disodium ethylenediaminetetraacetate (EDTA) and 0.1% sodium azide, antibody-reactive insulin secreted in the culture supernatant was quantified by enzyme immunoassay or radio immunoassay. The insulin level was indicated as the amount of human insulin (ng/mL). The results are indicated as averages (avg) for 3 to 4 samples with standard erroe values (se).

Where [1] appears, read: in the presence of 5 mmol/L of glucose, drug concentration 10 (mmol/L [sic]), None = 51.2.
Setting [2] is: in the presence of 14.5 mmol/L of glucose, drug concentration 1.0 μmol/L, None = 148.4.

A word on the melting point: it is the temperature of the solid-liquid transition. The compound `CCCN1C(=O)N2CC(Cc3ccccc3)CN=C2c2[nH]c(COCC)nc21.O=C(O)/C=C/C(=O)O` (centres unmarked) displayed a melting point of 152 to 157 °C. With `CSCCCOC1=Nc2nc(C3CCCC3)[nH]c2C2=N[C@H](Cc3ccccc3)CN12` [Compound 71, (R)-8-Benzyl-2-cyclopentyl-7,8-dihydro-5-(3-methylthiopropyloxy)-1H-imidazo[2,1-i]purine], the “Insulin secretion amount (ng/ml) avg” value is 107.7 ng/mL with MIN6 cell (setting [1]) and 211.0 ng/mL in the data set on MIN6 cell (setting [2]). For the compound `CCCN1C(=O)N2C[C@@H](Cc3ccccc3)N=C2c2c1nc(CCl)n2Cc1ccccc1` [Compound 42, (R)-1,8-Dibenzyl-2-chloromethyl-7,8-dihydro-4-(n-propyl)-1H-imidazo[2,1-i]purin-5(4H)-one], the melting point was 112 to 113 °C. Regarding `CCCN1C(=O)N2C[C@@H](Cc3ccccc3)N=C2c2[nH]c(COCc3ccccc3)nc21.CCCN1C(=O)N2C[C@@H](Cc3ccccc3)N=C2c2[nH]c(COCc3ccccc3)nc21.O=C(O)/C=C/C(=O)O` [Compound 56, (R)-8-Benzyl-2-benzyloxymethyl-7,8-dihydro-4-(n-propyl)-1H-imidazo[2,1-i]purin-5(4H)-one 0.5 fumarate], the “Insulin secretion amount (ng/ml) avg” value turned out to be 56.2 ng/mL with MIN6 cell (setting [1]) and 189.0 ng/mL with MIN6 cell (setting [2]). Consider `Cl.O=C(O)CN1C(=O)N2C[C@@H](Cc3ccccc3)N=C2c2[nH]c(C3CCCC3)nc21`, for which the melting point is 280 °C (dec.). For the compound `CC(C)[C@H]1CC[C@H](C(=O)N[C@H](Cc2ccccc2)C(=O)O)CC1` [AY4166, reference compound], the “secretion promoting action at a low glucose concentration (in words)” value in the data set with MIN6 cell is “marked secretion promoting action”. Further, the “Insulin secretion amount (ng/ml) avg” value in the data set on MIN6 cell (setting [1]) turned out to be 170.8 ng/mL; in the data set on MIN6 cell (in the presence of 14.5 mmol/L of glucose, drug concentration 10 μmol/L, None = 148.4), 195.1 ng/mL. `O=C1N2CC(Cc3ccncc3)N=C2c2[nH]c(C3CCCC3)nc2N1CC1CC1` (centres unmarked) [Compound 14, 2-Cyclopentyl-4-cyclopropylmethyl-7,8-dihydro-8-(4-picolyl)-1H-imidazo[2,1-i]purin-5(4H)-one dihydrochloride]: the “Insulin secretion amount (ng/ml) avg” value was found to be 66.4 ng/mL in the data set with MIN6 cell (setting [1]) and 177.9 ng/mL with MIN6 cell (setting [2]). `CCCN1C(=O)N2C[C@@H](Cc3ccccc3)N=C2c2[nH]c(CCC(=O)O)nc21` came in with a melting point of 274 to 276 °C.

For `CCCN1C(=O)N2C[C@@H](Cc3ccncc3)N=C2c2[nH]c(C3CCC3)nc21` [Compound 10, (R)-2-Cyclobutyl-7,8-dihydro-8-(4-picolyl)-4-(n-propyl)-1H-imidazo[2,1-i]purin-5(4H)-one D-tartrate], the “Insulin secretion amount (ng/ml) avg” value stood at 74.9 ng/mL with MIN6 cell (setting [1]) and 196.8 ng/mL in the data set on MIN6 cell (setting [2]). On to `CCCN1C(=O)N2CC(Cc3ccncc3)N=C2c2[nH]c(C(C)(C)C)nc21` (centres unmarked) [Compound 11, 2-(tert-Butyl)-7,8-dihydro-8-(4-picolyl)-4-(n-propyl)-1H-imidazo[2,1-i]purin-5(4H)-one], for which the melting point fell in the range of 293 to 295 °C.

For the compound `CCCN1C(=O)N2C[C@@H](Cc3ccccc3)N=C2c2[nH]c(C3(O)CCCC3)nc21` [Compound 40, (R)-8-Benzyl-7,8-dihydro-2-(1-hydroxycyclopentyl)-4-(n-propyl)-1H-imidazo[2,1-i]purin-5(4H)-one], the “Insulin secretion amount (ng/ml) avg” value with MIN6 cell (setting [1]) worked out at 56.7 ng/mL; with MIN6 cell (setting [2]) it was 191.2 ng/mL.

Turning to `O=C1N2CC(Cc3ccncc3)N=C2c2[nH]c(C3CCCC3)nc2N1CC1CC1` (centres unmarked) (as salt: hydrochloride) [Compound 14, 2-Cyclopentyl-4-cyclopropylmethyl-7,8-dihydro-8-(4-picolyl)-1H-imidazo[2,1-i]purin-5(4H)-one dihydrochloride], the melting point fell in the range of 240 to 241 °C.

In the case of `CCCN1C(=O)N2C[C@@H](Cc3ccccc3)N=C2c2[nH]c(CSCC)nc21.CCCN1C(=O)N2C[C@@H](Cc3ccccc3)N=C2c2[nH]c(CSCC)nc21.O=C(O)/C=C/C(=O)O` [Compound 64, (R)-8-Benzyl-2-ethylthiomethyl-7,8-dihydro-4-(n-propyl)-1H-imidazo[2,1-i]purin-5(4H)-one 0.5 fumarate], the figures for the “Insulin secretion amount (ng/ml) avg” value in the data set on MIN6 cell (setting [1]) and in the data set on MIN6 cell (setting [2]) were 61.2 ng/mL and 204.9 ng/mL, respectively. For the compound `CCCN1C(=O)N2CC(Cn3cccn3)N=C2c2[nH]c(C3CCCC3)nc21` (centres unmarked) [Compound 21, 2-Cyclopentyl-7,8-dihydro-4-(n-propyl)-8-(1-pyrazolylmethyl)-1H-imidazo[2,1-i]purin-5(4H)-one], the “Insulin secretion amount (ng/ml) avg” value in the data set on MIN6 cell (setting [1]) was found to be 74.8 ng/mL; with MIN6 cell (setting [2]) it was 182.1 ng/mL. As to `CC(C)(O)CN1C(=O)N2C[C@@H](Cc3ccccc3)N=C2c2[nH]c(C3CCCC3)nc21` [Compound 81, (R)-8-Benzyl-2-cyclopentyl-7,8-dihydro-4-(2-hydroxy-2-methylpropyl)-1H-imidazo[2,1-i]purin-5(4H)-one hydrochloride], the “Insulin secretion amount (ng/ml) avg” value in the data set with MIN6 cell (setting [1]) amounted to 83.1 ng/mL; in the data set with MIN6 cell (setting [2]), 195.4 ng/mL.

In the case of `COc1ccc(Cl)cc1C(=O)NCCc1ccc(S(=O)(=O)NC(=O)NC2CCCCC2)cc1` [Glibenclamide, reference compound], the “secretion promoting action at a low glucose concentration (in words)” value with MIN6 cell was “marked secretion promoting action”. Besides, the “Insulin secretion amount (ng/ml) avg” value stood at 156.8 ng/mL with MIN6 cell (in the presence of 5 mmol/L of glucose, drug concentration 0.1 (mmol/L [sic]), None = 51.2) and 177.8 ng/mL in the data set on MIN6 cell (in the presence of 14.5 mmol/L of glucose, drug concentration 0.1 μmol/L, None = 148.4). Turning to `CC(C)(O)CCN1C(=O)N2C[C@@H](Cc3ccccc3)N=C2c2[nH]c(C3CCCC3)nc21` [Compound 85, (R)-8-Benzyl-2-cyclopentyl-7,8-dihydro-4-(3-hydroxy-3-methylbutyl)-1H-imidazo[2,1-i]purin-5(4H)-one hydrochloride], the “Insulin secretion amount (ng/ml) avg” value stood at 53.6 ng/mL in the data set with MIN6 cell (setting [1]) and 197.1 ng/mL in the data set with MIN6 cell (setting [2]). In the case of `CCCN1C(=O)N2C[C@@H](Cc3ccccc3)N=C2c2[nH]c(C3CCCO3)nc21` (stereo partly drawn) [Compound 51, (R)-8-Benzyl-7,8-dihydro-4-(n-propyl)-2-(tetrahydrofuran-2-yl)-1H-imidazo[2,1-i]purin-5(4H)-one D-tartrate], the “Insulin secretion amount (ng/ml) avg” value in the data set with MIN6 cell (setting [1]) is 79.2 ng/mL; in the data set with MIN6 cell (setting [2]) it was 180.8 ng/mL. In the case of `CCCN1C(=O)N2C[C@@H](Cc3ccncc3)N=C2c2[nH]c(C3CCCCC3)nc21` [Compound 9, (R)-2-Cyclohexyl-7,8-dihydro-8-(4-picolyl)-4-(n-propyl)-1H-imidazo[2,1-i]purin-5(4H)-one], the entries for the “Insulin secretion amount (ng/ml) avg” value in the data set with MIN6 cell (setting [1]) and with MIN6 cell (setting [2]) were 74.0 ng/mL and 197.6 ng/mL, respectively. For the compound `CCCN1C(=O)N2C[C@@H](Cc3ccccc3)N=C2c2[nH]c(COCC)nc21.CCCN1C(=O)N2C[C@@H](Cc3ccccc3)N=C2c2[nH]c(COCC)nc21.O=C(O)/C=C/C(=O)O` [Compound 45, (R)-8-Benzyl-2-ethoxymethyl-7,8-dihydro-4-(n-propyl)-1H-imidazo[2,1-i]purin-5(4H)-one 0.5 fumarate], the figures for the “Insulin secretion amount (ng/ml) avg” value in the data set with MIN6 cell (setting [1]) and in the data set with MIN6 cell (setting [2]) were 69.9 ng/mL and 178.8 ng/mL, respectively. For the compound `CCCN1C(=O)N2CC(Cn3cccc3)N=C2c2[nH]c(C3CCCC3)nc21` (centres unmarked) [Compound 24, 2-Cyclopentyl-7,8-dihydro-4-(n-propyl)-8-(1-pyrrolylmethyl)-1H-imidazo[2,1-i]purin-5(4H)-one], the “Insulin secretion amount (ng/ml) avg” value in the data set with MIN6 cell (setting [1]) turned out to be 71.8 ng/mL; in the data set with MIN6 cell (setting [2]), 200.0 ng/mL.
